Source: article PMC11889159 (Scientific Reports, 2025)
Values joined by “and” are separate entries in the source; they are usually repeats but may differ in a detail not shown here. Identical values can stand only once. Like-named read-outs stand apart in the source and are kept apart here.

How the values were obtained:
[1] = target: T1, bovine serum albumin (BSA) (Bos taurus, UniProt P02769)
Description: UV absorption measurement is a simple yet effective technique for examining structural changes and complex formation. […] Variations in the absorbance near 280 nm signify interactions with small molecule drugs.
Absorption spectra were recorded using a UV-vis spectrophotometer (T6 New Century) over the wavelength range of 200–400 nm.

[2] = target: T1, bovine serum albumin (BSA); assay: biochemical
Text: The inner filter effect (IFE) arises when high analyte concentrations (e.g., fluorophores, ligands, or biomolecules) attenuate excitation light or absorb emitted photons, effectively reducing the optical path length and consequently causing depressed fluorescence readings. To mitigate this phenomenon in our experimental system, we strategically optimized sample concentrations through preliminary calibration studies.
Fluorescence quenching mechanisms can be categorized into static, dynamic, and combined quenching. […] Combined quenching involves both mechanisms, where the fluorophore collides with and forms a stable complex with the quencher. These processes can be described by the Stern-Volmer equation[49]: [drawing 1]
Where F0 and F are the fluorescence intensities in the absence and presence of the quencher, respectively; KSV is the Stern-Volmer quenching constant; [Q] is the quencher concentration; Kq is the bimolecular quenching constant; and τ0 is the fluorescence lifetime in the absence of the quencher (6.3 × 10^− 9 s)[50]. […] (unit: mol/L), and the Y-axis represents the fluorescence intensity ratio F0/F. The data points represent the experimentally measured F0/F values, while the solid line is the linear fit. […] The slope obtained from the linear fit according to the Stern-Volmer equation represents the quenching constant (KSV).
The binding constant (Kb) is calculated using the following formula: […]
Where Kb is the binding constant, n is the number of binding sites per BSA molecule, F0 and F are the fluorescence intensities without and with the quencher, respectively, and [Q] is the quencher concentration. Linear regression is used to fit the data, resulting in a straight line whose slope indicates n (the number of binding sites), and the intercept gives logKb.
Where R is 8.314 J·mol^-1·K^-1, T is 298 K (273 + 25 °C), and Kb is the calculated binding constant.
Fluorescence spectra were acquired using a Hitachi F-7100 fluorescence spectrophotometer equipped with a 150 W xenon lamp and 10 mm quartz cuvette. The instrument parameters were maintained at excitation and emission bandwidths of 10 nm, with a scanning speed of 1200 nm·min^− 1 and PMT voltage of 400 V throughout the experiments.

[3] = target: T1, bovine serum albumin (BSA); assay: Job's method, stoichiometry of inclusion complexation with BSA; format: binding; settings: [BSA] + [TPT] = 2.0 × 10^-6 mol/L, λex 295 nm
[4] = target: T1, bovine serum albumin (BSA); settings: for τave (average fluorescence lifetime): free BSA 3.72 ns
Text: In general, the fluorescence lifetime measurement is the most definitive method to distinguish between dynamic and static quenching.

[5] = target: T1, bovine serum albumin (BSA); settings: for λex/λem: pH 7.4
Text: Three-dimensional fluorescence spectroscopy, or excitation-emission matrix (EEM) spectroscopy, offers distinct advantages and broad applications for analyzing interactions between small molecules and BSA[55].
The excitation wavelength was systematically scanned from 220 to 350 nm with 5 nm increments, while the emission spectra were simultaneously recorded across the 220–500 nm range at a scanning speed of 12,000 nm min^− 1. The excitation and emission slit widths were maintained at 10 nm throughout the measurements to ensure consistent spectral resolution.

[6] = target: T1, bovine serum albumin (BSA); settings: van't Hoff plot, 293, 298 and 310 K, pH 7.4
[7] = design: method as in none printed; settings: prolonged circulation; species and source not given; cited from earlier work
[8] = target: T1, bovine serum albumin (BSA); assay: biochemical; settings: LogKb, pH 7.4
[9] = target: T1, bovine serum albumin (BSA); assay: biochemical; settings: logKb
[10] = target: T1, bovine serum albumin (BSA); settings: experimental ΔG versus docking ΔG at Site I
Description: The three-dimensional structure of BSA was obtained from the RCSB Protein Data Bank (PDB) database (https://www.rcsb.org/) (PDB ID: 4f5s). […] Open Babel 3.1.1 software was utilized to convert the sdf format files from the PubChem database to pdb format. […] Additionally, the molecular visualization was conducted using Pymol version 2.6.0a0 for 3D visualization and LigPlot + version 2.2.8 for 2D visualization.

[11] = BSA 1.0 × 10^-6 mol/L, drug 5.0 × 10^-6 mol/L
[12] = BSA 1.0 × 10^-6 mol/L, drug 5.0 × 10^-6 mol/L, phosphate buffer, 298.15 K
[13] = BSA 2 × 10^-6 mol/L, drug 0–33 × 10^-6 mol/L, pH 7.4, 298.15 K
[14] = BSA 2 × 10^-6 mol/L, pH 7.4, 298.15 K
[15] = BSA 2 × 10^-6 mol/L, phosphate buffer pH 7.40, λex 295 nm
[16] = slope of double logarithmic plot, 298 K
[17] = BSA 1 × 10^-6 mol/L, drug 5 × 10^-6 mol/L, λex 295 nm, λem 350 nm
[18] = BSA 1 × 10^-6 mol/L, drug 5 × 10^-6 mol/L
[19] = drug:BSA 5:1, Peak 1, BSA 3 × 10^-6 mol/L
[20] = drug:BSA 5:1, Peak 1, BSA alone 9750
[21] = drug:BSA 5:1, Peak 1, blue shift
[22] = drug:BSA 5:1, Peak 2, BSA 3 × 10^-6 mol/L
[23] = drug:BSA 5:1, Peak 2, BSA alone 7937
[24] = drug:BSA 5:1, Peak 2, blue shift
[25] = drug:BSA 10:1, Peak 1, BSA 3 × 10^-6 mol/L
[26] = drug:BSA 10:1, Peak 1, BSA alone 9750
[27] = drug:BSA 10:1, Peak 1, blue shift
[28] = drug:BSA 10:1, Peak 2, BSA 3 × 10^-6 mol/L
[29] = drug:BSA 10:1, Peak 2, BSA alone 7937
[30] = drug:BSA 10:1, Peak 2, blue shift
[31] = Site marker: Blank (no marker), BSA 1.0 × 10^-6 mol/L
[32] = Site marker: Ibuprofen 2 × 10^-6 mol/L, BSA 1.0 × 10^-6 mol/L
[33] = Site marker: Warfarin 2 × 10^-6 mol/L, BSA 1.0 × 10^-6 mol/L

T1 sequence (P02769 25-607): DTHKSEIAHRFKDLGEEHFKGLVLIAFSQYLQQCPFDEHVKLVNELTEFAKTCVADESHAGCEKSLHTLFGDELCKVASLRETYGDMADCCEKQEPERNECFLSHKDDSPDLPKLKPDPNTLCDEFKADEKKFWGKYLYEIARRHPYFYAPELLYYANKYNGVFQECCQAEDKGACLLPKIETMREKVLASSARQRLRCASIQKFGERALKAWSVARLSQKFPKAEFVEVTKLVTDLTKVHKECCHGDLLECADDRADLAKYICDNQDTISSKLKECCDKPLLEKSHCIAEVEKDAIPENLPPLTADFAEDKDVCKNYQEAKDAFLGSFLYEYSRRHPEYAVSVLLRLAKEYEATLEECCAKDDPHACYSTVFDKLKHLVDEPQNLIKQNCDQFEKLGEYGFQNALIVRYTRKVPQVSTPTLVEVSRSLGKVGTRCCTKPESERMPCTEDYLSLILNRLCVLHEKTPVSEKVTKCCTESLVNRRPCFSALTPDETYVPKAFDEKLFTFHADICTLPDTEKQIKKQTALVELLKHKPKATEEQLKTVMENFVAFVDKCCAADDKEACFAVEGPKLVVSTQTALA

| SMILES | blue shift of the UV absorption peak of BSA at 280 nm [1, 11] [nm] | Changes in absorption peaks (280 nm) [1, 12] | Kd [2] [µM] | Stern–Volmer equation Slope [2, 13] | Ksv (Stern-Volmer quenching constant) [2, 14] | blue shift of the maximum fluorescence emission peak of BSA (Δλmax) [2, 15] [nm] | Kq (bimolecular quenching constant) ([2]; Kq = KSV/τ0, τ0 6.3 × 10^-9 s) | n (number of binding sites per BSA molecule) [2, 16] | A1 (decay amplitude) [4, 17] | A2 (decay amplitude) [4, 17] | τ1 [4, 17] [ns] | τ2 [4, 17] [ns] | τave (average fluorescence lifetime) [4, 18] [ns] | λex/λem [5, 19] | Intensity [5, 20] | Emission maximum shift [5, 21] [nm] | λex/λem [5, 22] | Intensity [5, 23] | Emission maximum shift [5, 24] [nm] | λex/λem [5, 25] | also measured |
| --- | --- | --- | --- | --- | --- | --- | --- | --- | --- | --- | --- | --- | --- | --- | --- | --- | --- | --- | --- | --- | --- |
| CC[C@@]1(O)C(=O)OCc2c1cc1n(c2=O)Cc2cc3c(CN(C)C)c(O)ccc3nc2-1 [TPT, Topotecan] | 12 | 280 nm→268 nm | 11 | 29101.32 ± 782.38 | 29.10 ×10^3 L·mol^− 1 | 1.0 | 46.19 ×10^11 L·mol^− 1·s^− 1 | 1.1165 | 0.8636 | 0.1543 | 1.699 | 7.6602 | 4.36 | 275/340 | 8453 | 0 | 225/340 | 5380 | 0 | 275/325 | KSV ([2]; as quoted in the discussion of Table 2): 29.10 × 10^2 M^− 1; molar fraction at maximum fluorescence intensity change (Job's plot) [3]: 0.5; Intensity [5, 26]: 4956; Emission maximum shift [5, 27]: 15 nm; λex/λem [5, 28]: 225/320; Intensity [5, 29]: 2777; Emission maximum shift [5, 30]: 20 nm; ΔS [6]: 0.066 kJ·mol^− 1·K^− 1; circulation t1/2 [7]: ≈ 8 h; Kd ([8]; 293 K): 3.98 µM; Kd ([8]; 298 K): 4.37 µM; Kd ([8]; 310 K): 5.13 µM; Kd [9]: 12.6 µM and 6.61 µM and 12 µM |
| CCc1c2c(nc3ccc(OC(=O)N4CCC(N5CCCCC5)CC4)cc13)-c1cc3c(c(=O)n1C2)COC(=O)[C@]3(O)CC [CPT-11, Irinotecan] |  |  |  |  |  |  |  |  |  |  |  |  |  |  |  |  |  |  |  |  | Changes in absorption peaks (280 nm) [1]: 280 nm→258 nm; τ2 [4]: 7.79 ns |
| CC[C@@]1(O)C(=O)OCc2c1cc1n(c2=O)Cc2cc3cc(O)ccc3nc2-1 [10-HCPT, 10-Hydroxycamptothecin] | 2 | 280 nm→278 nm | 121 |  |  |  |  |  | 0.8806 | 0.1858 | 2.239 | 7.483 | 4.41 |  |  |  |  |  |  |  | Kq (bimolecular quenching constant) [2]: 23.79 ×10^11 L·mol^− 1·s^− 1; n (number of binding sites per BSA molecule) [2]: 0.8809; Ksv (Stern-Volmer quenching constant) ([2]; pH 7.4): 14.99 ×10^3 L·mol^− 1; Stern–Volmer equation Slope ([2]; pH 7.4): 14986.88 ± 1787.60; blue shift of the maximum fluorescence emission peak of BSA (Δλmax) ([2]; pH 7.4): 11.8 nm; Emission maximum shift [5]: 15 nm; λex/λem [5]: 225/325 and 275/325; ΔΔG between experimental and theoretical binding energy [10]: ≈ 10.51 kJ·mol^−1; Kd [9, 31]: 120 µM; Kd [9, 32]: 44.7 µM; Kd [9, 33]: 1510 µM |
| CC[C@@]1(O)C(=O)OCc2c1cc1n(c2=O)Cc2cc3ccccc3nc2-1 [CPT, Camptothecin] | 3 | 280 nm→277 nm | 236 | 18536.73 ± 2298.23 | 18.53 ×10^3 L·mol^− 1 | 1.4 | 29.41 ×10^11 L·mol^− 1·s^− 1 | 0.8287 | 0.7855 | 0.2263 | 1.889 | 5.78 | 3.71 | 275/340 | 3382 | 0 | 225/340 | 5518 | 0 | 275/340 | Reduction percent (fluorescence intensity) ([5]; drug:BSA 5:1, Peak 1): 65%; Reduction percent (fluorescence intensity) ([5]; drug:BSA 5:1, Peak 2): 30%; Reduction percent (fluorescence intensity) ([5]; drug:BSA 10:1, Peak 1): 67%; Intensity [5, 26]: 3179; Emission maximum shift [5, 27]: 0 nm; Reduction percent (fluorescence intensity) ([5]; drug:BSA 10:1, Peak 2): 33%; λex/λem [5, 28]: 225/340; Intensity [5, 29]: 5323; Emission maximum shift [5, 30]: 0 nm; Kd [9, 31]: 234 µM; Kd [9, 32]: 759 µM; Kd [9, 33]: 5500 µM |
